Several values for one entry are separate records, joined by “and”; a condition that tells them apart may be missing. Equal values may be shown once.
Assay: Renal extraction fraction by contrast enhanced CT after iohexol injection (retrospective study)
Format: in vivo, adult patients
Source text: [formula] where CA is the concentration of a filtration marker in the systemic arterial blood entering the kidney, and CV is the corresponding concentration in the renal venous blood. Standard radiographic contrast agents, including iothalamate and iohexol, may be used as filtration markers since they are freely filtered by the kidney, and neither secreted nor reabsorbed. Assuming linear increase in CT number with concentration of contrast agent, CA will be proportional to the increase in CT number of the systemic arterial blood following contrast injection, or CTA-CTPRE, where CTPRE and CTA are the pre- and post- contrast CT numbers of the systemic arterial blood. Similarly, CTV will be proportional to CTV-CTPRE, where CTV is the post-contrast CT number of a renal vein. Substituting into equation [1] yields: […]
In a retrospective study, CT scans of 10 adult patients (mean age 58.1 years, 7 female) having no known renal disease, and one patient with unilateral renal obstruction were studied. All patients had precontrast scans followed by injection of 120 ml. of iohexol (Omnipaque 350, Amersham Health, Princeton, N.J.) at 2 ml/sec., and enhanced scans through the kidney vasculature, delayed for 3 to 5 minutes after the end of the contrast injection. CT section thickness varied from 2.5 mm to 5 mm. Pre- and post-contrast delayed images were evaluated using ROI measurements taken within the abdominal aorta in the region of the renal vessels, and within right and left renal veins. Multiple measurements, one from each of several axial scans, within each vessel were obtained, varying from 2 to 4 measurements for each renal vein, and 4-8 measurements for the abdominal aorta. Mean CT number values were subsequently computed for each vessel. EF values for the right and left kidneys in each subject were then computed for each patient using equation [2] above. Propagation of error was used to estimate the standard deviation in the computed EF values, as expressed in:
[formula] where σ^2CTA, σ^2CTV, and σ^2CTPRE are the variances in the mean values for each region.

[1] = 10 patients with no history of renal disease, weighted by the inverse of the variance
[2] = individual normal subjects (no known renal disease), one line per patient, 120 ml iohexol at 2 ml/sec, scans delayed 3 to 5 minutes after injection
[3] = patient with unilateral renal obstruction

Compound: CC(=O)N(CC(O)CO)c1c(I)c(C(=O)NCC(O)CO)c(I)c(C(=O)NCC(O)CO)c1I (stereo not drawn) [iohexol]
- Left renal EF, weighted mean ± SD [1]: 12.3±1.3%
- Right renal EF, weighted mean ± SD [1]: 12.6±1.0%
- Left Renal EF (calculated extraction fraction ± s.d.) [2]: 7.7 ± 6.3% and 9.1 ± 1.5% and 7.8 ± 2.6% and 21.1 ± 1.7% and 22.2 ± 3.0% and 8.3 ± 1.9% and 17.7 ± 4.7% and 8 ± 3.2% and 7.7 ± 3.1% and 7.7 ± 5.3%
- Right Renal EF (calculated extraction fraction ± s.d.) [2]: 8.3 ± 9.6% and 16.2 ± 11.6% and 7.6 ± 1.6% and 16.8 ± 3.4% and 16.7 ± 2.2% and 8 ± 5.4% and 16.2 ± 4.6% and 10.6 ± 4.5% and 18.8 ± 2.8% and 13.3 ± 3.1%
- EF in the obstructed left kidney [3]: 9.7±4.0%
- EF in the unobstructed right kidney [3]: 29.6±5.6%

From patent US7894880B2, “Measurement of renal extraction fraction using contrast enhanced computed tomography” (The Board of Trustees of the Leland Stanford Junior …, priority 2003, dated 2011)
